The target in the assay is T1, GPR103 C98^2.57A (Homo sapiens, UniProt Q96P65, C98A).
T1 construct: we used human full-length QRFPR-encoding plasmids; expressed in transfected cells; host or cells: HEK293 cells, pCAGGS vector
T1 sequence (Q96P65 1-431 C98A): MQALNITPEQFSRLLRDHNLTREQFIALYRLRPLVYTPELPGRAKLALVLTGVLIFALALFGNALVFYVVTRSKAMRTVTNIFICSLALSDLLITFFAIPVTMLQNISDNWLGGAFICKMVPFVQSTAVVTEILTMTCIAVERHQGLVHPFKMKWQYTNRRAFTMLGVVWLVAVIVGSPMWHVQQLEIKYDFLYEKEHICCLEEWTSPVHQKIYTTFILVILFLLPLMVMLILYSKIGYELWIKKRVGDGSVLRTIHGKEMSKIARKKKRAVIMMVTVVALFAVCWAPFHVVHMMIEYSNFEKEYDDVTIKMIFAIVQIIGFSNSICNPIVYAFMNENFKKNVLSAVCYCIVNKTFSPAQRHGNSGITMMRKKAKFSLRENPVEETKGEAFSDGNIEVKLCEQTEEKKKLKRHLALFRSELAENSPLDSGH
As to the kind of experiment: TGFα shedding assay; Exp. level WT (1:50). It counts as cell-based.

No end group written: not given here.

In the case of TSGPLGNLAEELNGYSRKKGGFSFRF-NH2 [QRFP26], the maximal response (Emax) (mean) turned out to be 86%. For the same substance, for the setting “n = 3”, a half-maximal response (EC50) required 72.4 nM and the maximal response (Emax) was 88.3 ± 3.6%.

For orientation: Emax means the greatest response seen or fitted, relative to the assay's reference. The EC50 is the concentration needed to bring the measured effect to its halfway point. Read a low EC50 as greater potency.

Source of the values: paper PMC11187126, “Structure and dynamics of the pyroglutamylated RF-amide peptide QRFP receptor GPR103” (Nature Communications, 2024).
